Results: US20240132431A1, “METHOD FOR ALKYLATING ACIDIC FUNCTIONAL GROUP” (Chugai Seiyaku Kabushiki Kaisha, priority 2021, published 2024)
Blank lines part the entries; values can stand above or below the compound they belong to.

Target: T1, Bcl-2 protein (Recombinant Human Bcl-2 Protein) (Homo sapiens, UniProt P10415)
T1 construct: purchased Novus NBP2-34889
Experiment: Binding evaluation of mixture library compounds to Bcl-2 using AS-MS (affinity selection mass spectrometry)
Conditions: for ASMS ratio (%) n = 1 / ASMS ratio (%) n = 2: ASMS Ratio(%)=(A−C)/B×100; for ASMS ratio (%) n = 1: replicate n = 1; for ASMS ratio (%) n = 2: replicate n = 2
Procedure, shortened: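 Readout is ASMS Ratio (%), (A−C)/B×100, from reversed-phase LC/MS of SEC-passed extracts, with protein-free unfiltered standard (B) and protein-free SEC blank (C). Recombinant human Bcl-2 at 20 μM final met ~1200 pooled compounds at […] each for 1 h, 23° C., dark, in Tris-HCl pH 7.4 buffer.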

[1] = AS-MS, mixture of 1200 compounds, Bcl-2
[2] = AS-MS on the mixture of 1200 library compounds

T1 sequence (P10415 whole entry): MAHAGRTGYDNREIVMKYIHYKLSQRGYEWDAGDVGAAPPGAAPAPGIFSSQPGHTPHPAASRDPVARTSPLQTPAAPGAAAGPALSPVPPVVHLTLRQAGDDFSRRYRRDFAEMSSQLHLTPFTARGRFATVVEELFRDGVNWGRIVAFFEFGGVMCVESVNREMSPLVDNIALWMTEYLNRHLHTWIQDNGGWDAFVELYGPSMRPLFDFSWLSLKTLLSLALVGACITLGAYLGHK

ASMS ratio (%) (n = 1): 9.7%
ASMS ratio (%) (n = 2): −4.8%
Compound: CCOc1cccc(-c2cc(C(=O)N3CCN(c4ccc(C(=O)NS(=O)(=O)c5ccc(NCCSc6ccccc6)c(C(F)(F)F)c5)cc4)CC3)cc(C(F)(F)F)c2)c1 [B2R039-01, 4-[4-[3-(3-Ethoxyphenyl)-5-(trifluoromethyl)benzoyl]piperazin-1-yl]-N-[4-(2-phenylsulfanylethylamino)-3-(trifluoromethyl)phenyl]sulfonylbenzamide]

Compound: 4-[4-[[4-(3-Ethoxyphenyl)-2,6-dimethoxyphenyl]methyl]piperazin-1-yl]-N-propylbenzamide [B1M020-01]
ASMS ratio (%) n = 1 [1]: 0.0%
ASMS ratio (%) n = 2 [1]: 0.0%

Compound: CCOc1cncc(-c2ccc(CN3CCN(c4ccc(C(=O)NS(=O)(=O)C(C)(C)C)cc4)CC3)c(OC)c2)c1 [B2L054-01]
ASMS ratio (%) (n = 1): 0.0%
ASMS ratio (%) (n = 2): 0.0%

ASMS ratio (%) n = 1 (AS-MS, mixture library, Bcl-2): 13.3%
ASMS ratio (%) n = 2 (AS-MS, mixture library, Bcl-2): 8.9%
Compound: CCOc1cncc(C#Cc2cncc(C(=O)N3CCN(c4ccc(C(=O)NS(=O)(=O)c5ccc(NCCSc6ccccc6)c([N+](=O)[O-])c5)nn4)CC3)c2)c1 [B2Q010-01, 6-[4-[5-[2-(5-Ethoxypyridin-3-yl)ethynyl]pyridine-3-carbonyl]piperazin-1-yl]-N-[3-nitro-4-(2-phenylsulfanylethylamino)phenyl]sulfonylpyridazine-3-carboxamide]

ASMS ratio (%) n = 1 [2]: 9.3%
ASMS ratio (%) n = 2 [2]: 0.8%
Compound: CCOc1cccc(-c2ccc(CN3CCN(c4ccc(C(=O)Nc5ccc(OC)cc5)nn4)CC3)c(CC)c2)c1 [B1O075-01, 6-[4-[[4-(3-Ethoxyphenyl)-2-ethylphenyl]methyl]piperazin-1-yl]-N-(4-methoxyphenyl)pyridazine-3-carboxamide]

Compound: 4-[4-[4-(3-Ethoxyphenyl)-3-fluorobenzoyl]piperazin-1-yl]-N-propylbenzamide [B1M090-01]
ASMS ratio (%) n = 1 [2]: 0.0%
ASMS ratio (%) n = 2 [2]: 0.0%

ASMS ratio (%) n = 1 (AS-MS, mixture library, Bcl-2): 0.0%
ASMS ratio (%) n = 2 (AS-MS, mixture library, Bcl-2): 1.6%
Compound: CCOc1cncc(-c2ccccc2CCC(=O)N2CCN(c3ccc(C(=O)NS(C)(=O)=O)cc3)CC2)c1 [B2I034-01, 4-[4-[3-[2-(5-Ethoxypyridin-3-yl)phenyl]propanoyl]piperazin-1-yl]-N-methylsulfonylbenzamide]

ASMS ratio (%) (n = 1): 0.0%
ASMS ratio (%) (n = 2): 0.0%
Compound: CCOc1cccc(C#Cc2ccccc2CN2CCN(c3ccc(C(=O)NS(=O)(=O)C(C)(C)C)cc3)CC2)c1 [B2L069-01, N-tert-Butylsulfonyl-4-[4-[[2-[2-(3-ethoxyphenyl)ethynyl]phenyl]methyl]piperazin-1-yl]benzamide]

ASMS ratio (%) n = 1 [2]: −1.9%
ASMS ratio (%) n = 2 [2]: −8.0%
Compound: CCOc1cccc(-c2cc(OC)c(CN3CCN(c4ccc(C(=O)N(C)CC56CC7CC(CC(C7)C5)C6)cc4)CC3)c(OC)c2)c1 [B3A059-01, N-(1-Adamantylmethyl)-4-[4-[[4-(3-ethoxyphenyl)-2,6-dimethoxyphenyl]methyl]piperazin-1-yl]-N-methylbenzamide]

ASMS ratio (%) n = 1 [2]: 9.7%
ASMS ratio (%) n = 2 [2]: 4.4%
Compound: CCOc1cccc(-c2ccc(C(=O)N3CCN(c4ccc(C(=O)N(C)CC56CC7CC(CC(C7)C5)C6)cc4)CC3)c3ccccc23)c1 [B3A035-01, N-(1-Adamantylmethyl)-4-[4-[4-(3-ethoxyphenyl)naphthalene-1-carbonyl]piperazin-1-yl]-N-methylbenzamide]

ASMS ratio (%) n = 1 (AS-MS, mixture library, Bcl-2): −1.9%
ASMS ratio (%) n = 2 (AS-MS, mixture library, Bcl-2): 0.0%
Compound: CCOc1cncc(-c2csc(C(=O)N3CCN(c4ccc(C(=O)NS(=O)(=O)CC56CC7CC(CC(C7)C5)C6)cc4)CC3)c2)c1 [B2A024-01, N-(1-Adamantylmethylsulfonyl)-4-[4-[4-(5-ethoxypyridin-3-yl)thiophene-2-carbonyl]piperazin-1-yl]benzamide]

ASMS ratio (%) n = 1 (AS-MS, mixture library, Bcl-2): 18.6%
ASMS ratio (%) n = 2 (AS-MS, mixture library, Bcl-2): 16.7%
Compound: CCOc1cccc(-c2cc(CN3CCN(c4ccc(C(=O)NS(=O)(=O)CC56CC7CC(CC(C7)C5)C6)nn4)CC3)cc(OCC)c2)c1 [B2A081-01, N-(1-Adamantylmethylsulfonyl)-6-[4-[[3-ethoxy-5-(3-ethoxyphenyl)phenyl]methyl]piperazin-1-yl]pyridazine-3-carboxamide]

ASMS ratio (%) (n = 1): 0.0%
ASMS ratio (%) (n = 2): 0.0%
Compound: CCOc1cncc(-c2ccc(CN3CCN(c4ccc(C(=O)NS(=O)(=O)c5ccc(NCCSc6ccccc6)c(C(F)(F)F)c5)cc4)CC3)c(CC)c2)c1 [B2R050-01, 4-[4-[[4-(5-Ethoxypyridin-3-yl)-2-ethylphenyl]methyl]piperazin-1-yl]-N-[4-(2-phenylsulfanylethylamino)-3-(trifluoromethyl)phenyl]sulfonylbenzamide]

ASMS ratio (%) n = 1 [1]: 0.0%
ASMS ratio (%) n = 2 [1]: 0.0%
Compound: CCOc1cncc(C#Cc2ccccc2CN2CCN(c3ccc(C(=O)NCC45CC6CC(CC(C6)C4)C5)cc3)CC2)c1 [B1A070-01, N-(1-Adamantylmethyl)-4-[4-[[2-[2-(5-ethoxypyridin-3-yl)ethynyl]phenyl]methyl]piperazin-1-yl]benzamide]

ASMS ratio (%) n = 1 [1]: 0.0%
ASMS ratio (%) n = 2 [1]: 0.0%
Compound: CCOc1cccc(-c2csc(C(=O)N3CCN(c4ccc(C(=O)NCC(F)(F)F)nn4)CC3)c2)c1 [B1K001-01, 6-[4-[4-(3-Ethoxyphenyl)thiophene-2-carbonyl]piperazin-1-yl]-N-(2,2,2-trifluoroethyl)pyridazine-3-carboxamide]

Compound: 4-[4-[4-(5-Ethoxypyridin-3-yl)-3-fluorobenzoyl]piperazin-1-yl]-N-propylbenzamide [B1M091-01]
ASMS ratio (%) n = 1 [2]: 0.0%
ASMS ratio (%) n = 2 [2]: 0.0%

ASMS ratio (%) n = 1 [2]: 2.2%
ASMS ratio (%) n = 2 [2]: 2.6%
Compound: CCOc1cncc(-c2csc(C(=O)N3CCN(c4ccc(C(=O)Nc5ccc(OC)cc5)nn4)CC3)c2)c1 [B1O002-01, 6-[4-[4-(5-Ethoxypyridin-3-yl)thiophene-2-carbonyl]piperazin-1-yl]-N-(4-methoxyphenyl)pyridazine-3-carboxamide]

ASMS ratio (%) n = 1 (AS-MS, mixture library, Bcl-2): 10.2%
ASMS ratio (%) n = 2 (AS-MS, mixture library, Bcl-2): 11.4%
Compound: CCOc1cncc(-c2ccccc2CN2CCN(c3ccc(C(=O)NS(=O)(=O)c4ccc(NCCSc5ccccc5)c([N+](=O)[O-])c4)nn3)CC2)c1 [B2Q072-01, 6-[4-[[2-(5-Ethoxypyridin-3-yl)phenyl]methyl]piperazin-1-yl]-N-[3-nitro-4-(2-phenylsulfanylethylamino)phenyl]sulfonylpyridazine-3-carboxamide]

Compound: CCOc1cccc(-c2cc(C(=O)N3CCN(c4ccc(C(=O)N(CC)CC)cc4)CC3)cc(C(F)(F)F)c2)c1 [B4J039-01, 4-[4-[3-(3-Ethoxyphenyl)-5-(trifluoromethyl)benzoyl]piperazin-1-yl]-N,N-diethylbenzamide]
ASMS ratio (%) n = 1 [2]: 2.2%
ASMS ratio (%) n = 2 [2]: 0.1%

ASMS ratio (%) n = 1 [1]: 8.3%
ASMS ratio (%) n = 2 [1]: 0.8%
Compound: CCOc1cccc(C#Cc2ccccc2CN2CCN(c3ccc(C(=O)NCC45CC6CC(CC(C6)C4)C5)cc3)CC2)c1 [B1A069-01, N-(1-Adamantylmethyl)-4-[4-[[2-[2-(3-ethoxyphenyl)ethynyl]phenyl]methyl]piperazin-1-yl]benzamide]

ASMS ratio (%) (n = 1): 3.3%
ASMS ratio (%) (n = 2): −0.8%
Compound: CCOc1cncc(-c2ccc(CN3CCN(c4ccc(C(=O)NS(=O)(=O)c5ccc(NCCSc6ccccc6)c(C(F)(F)F)c5)cc4)CC3)c(OC)c2)c1 [B2R054-01, 4-[4-[[4-(5-Ethoxypyridin-3-yl)-2-methoxyphenyl]methyl]piperazin-1-yl]-N-[4-(2-phenylsulfanylethylamino)-3-(trifluoromethyl)phenyl]sulfonylbenzamide]

ASMS ratio (%) (n = 1): 0.0%
ASMS ratio (%) (n = 2): 0.0%
Compound: CCOc1cccc(-c2ccc(CN3CCN(c4ccc(C(=O)NS(=O)(=O)C(C)(C)C)nn4)CC3)c3ccccc23)c1 [B2L091-01, N-tert-Butylsulfonyl-6-[4-[[4-(3-ethoxyphenyl)naphthalen-1-yl]methyl]piperazin-1-yl]pyridazine-3-carboxamide]

ASMS ratio (%) (n = 1): 0.0%
ASMS ratio (%) (n = 2): 0.1%
Compound: CCOc1cncc(-c2ccccc2CN2CCN(c3ccc(C(=O)NS(=O)(=O)CCC(F)(F)F)nn3)CC2)c1 [B2N072-01]

Compound: CCOc1cccc(-c2ccc(C(=O)N3CCN(c4ccc(C(=O)N(CC)CC)cc4)CC3)cc2C)c1 [B4J025-01, 4-[4-[4-(3-Ethoxyphenyl)-3-methylbenzoyl]piperazin-1-yl]-N,N-diethylbenzamide]
ASMS ratio (%) n = 1 [2]: 3.6%
ASMS ratio (%) n = 2 [2]: −0.3%

ASMS ratio (%) (n = 1): 0.0%
ASMS ratio (%) (n = 2): 0.0%
Compound: CCOc1cccc(-c2csc(CN3CCN(c4ccc(C(=O)NS(=O)(=O)C(C)(C)C)cc4)CC3)c2)c1 [B2L067-01, N-tert-Butylsulfonyl-4-[4-[[4-(3-ethoxyphenyl)thiophen-2-yl]methyl]piperazin-1-yl]benzamide]

ASMS ratio (%) n = 1 (AS-MS, mixture library, Bcl-2): 0.0%
Compound: CCOc1cncc(-c2ccc(CN3CCN(c4ccc(C(=O)NS(=O)(=O)c5ccc(NCCSc6ccccc6)c([N+](=O)[O-])c5)nn4)CC3)c(CC)c2)c1 [B2Q076-01, 6-[4-[[4-(5-Ethoxypyridin-3-yl)-2-ethylphenyl]methyl]piperazin-1-yl]-N-[3-nitro-4-(2-phenylsulfanylethylamino)phenyl]sulfonylpyridazine-3-carboxamide]

ASMS ratio (%) n = 1 (AS-MS, mixture library, Bcl-2): 1.4%
ASMS ratio (%) n = 2 (AS-MS, mixture library, Bcl-2): −1.5%
Compound: CCOc1cncc(-c2cc(CN3CCN(c4ccc(C(=O)N(CC)CC)nn4)CC3)cc(OC(F)(F)F)c2)c1 [B4J090-01, 6-[4-[[3-(5-Ethoxypyridin-3-yl)-5-(trifluoromethoxy)phenyl]methyl]piperazin-1-yl]-N,N-diethylpyridazine-3-carboxamide]
